Assay [1] deals with rat model of facial thermal nociception. Description: Rat model of facial thermal nociception (cheek withdrawal latency to radiant heat). Format: in vivo. The settings on record: for analgesic effect (elevation in latency to withdrawal): 15-300 min. The protocol: The heat from a projector lamp was focused on the pre-shaved cheek of rats and the intensity was varied to obtain a withdrawal response with a latency of between 6.5 and 8.5 seconds. The intensity applied to achieve such latencies was recorded for each animal. Once stable/acceptable baseline values were obtained, the average latencies for each rat were calculated. After baseline cheek withdrawal latencies were determined for all rats, each rat received a single nasal administration of either normal saline, 15% magnesium chloride in water, or 1% magnesium lactate in water according to the method developed by Frey (Thorne, et al. Neuroscience., 127: 481-496 (2004)). Briefly, rats (under urethane anesthesia) were placed in a supine position with a rolled pad (2×2 gauze) inserted under the dorsal neck to extend the head back toward the supporting surface. The upper surface of the neck was kept horizontal throughout the dosing procedure to maintain the drug solution in the nasal cavity and minimize dripping down the nasopharynx. A 6 μL drop of the respective drug solution was delivered off the tip of a small pipette and presented to the nares on the left side of the rat while occluding the opposite nares. One drop was administered every 2 minutes, alternating between each nares (thus amounting to a four minute interval between doses to the same nares). Each nostril received 4 drops, totaling a combined volume of 48 μL (8 drops of 6 μL each). Drug solutions were coded in order to keep the experimenter blinded as to the substances delivered. Left cheek withdrawal latencies in response to radiant heat stimulation were then measured over the next 3 hours. Withdrawal latencies were measured prior to nasal administration and at 1, 2, and 3 hours post-treatment.
One of 4 concentrations of dibasic magnesium citrate (1:1 Mg/citrate) was applied to rats and the effects of these applications on responses to noxious thermal stimulation of the face were assessed as described above. Each rat received a single nasal administration of 3, 6, 10, or 12% magnesium citrate in water (6 rats/group) according to the method described above. Left cheek withdrawal latencies in response to radiant heat stimulation were then measured over the following 300 minutes. Withdrawal latencies were measured prior to nasal administration and at 15, 30, 45, 60, 120, 180, 240, and 300 min post-treatment.
One of 3 doses of oxytocin in buffered saline was applied to rats and the effects of these applications on responses to noxious thermal stimulation of the face were assessed as described above. Each rat received a single nasal administration of 1, 4, or 8 μg oxytocin in aqueous solution (6 rats/group) according to the method described above. Left cheek withdrawal latencies in response to radiant heat stimulation were then measured over the following 300 minutes. Withdrawal latencies were measured prior to nasal administration and at 15, 30, 45, 60, 120, 180, 240, and 300 min post-treatment.
Aqueous solutions containing a combination of magnesium citrate at one of 3 concentrations with oxytocin at one of 3 doses were applied nasally in rats and changes in withdrawal response latency were measured as above. Each rat received a single nasal administration of 1, 4, or 8 μg of oxytocin in aqueous solution containing 3, 6, or 12% magnesium citrate according to the method described above. Left cheek withdrawal latencies in response to radiant heat stimulation were then measured over the following 300 minutes. Withdrawal latencies were measured prior to nasal administration and at 15, 30, 45, 60, 120, 180, 240, and 300 min post-treatment.
Difference scores were generated for each time point after dosing by comparing the respective withdrawal response latency to pre-dosing (baseline) values.

In assay [2] the test system is patient with chronic tension-type headache. Description: Patient with chronic tension-type headache, neck and shoulder pain taking oxytocin sprays. In kind it is in vivo, human. The text has this:
A patient with chronic tension-type headache reported having intense pain in their head, neck and shoulders. The patient took 4 sprays of 7.5 IU/spray oxytocin for a dose of 30 units, at which point their headache pain was gone, but the neck and shoulder pain remained. […] Thus, a higher dose was necessary to affect neck and shoulder pain than was necessary to inhibit head pain in the same patient.

For assay [3], the system named is rat paw inflammation model. In words: Rat paw inflammation model (complete Freund's adjuvant, forepaw force withdrawal threshold). In kind it is in vivo. The settings on record: nasal. The protocol: The analgesic effect of nasally administered oxytocin on cervical nerve-associated inflammatory pain was assessed in a rat paw inflammation model (Martin et al., Pain 1999, 82:199-205). Oxytocin was nasally administered at one of three doses (193, 385 or 768 micrograms in 48 microliters) and force withdrawal thresholds in grams were determined following mechanical stimulation of the inflamed area (forepaw), at regular intervals over the next three hours, and compared against those of vehicle (phosphate buffered saline) treated rats. Injection of complete Freund's adjuvant into the left forepaw of rats produced a robust inflammation of that paw as well as a substantial decrease in the force necessary to elicit a withdrawal response (mechanical allodynia).

[4] abbreviates: 1% in water, single nasal administration.
The mark [5] stands for this setting: 4 sprays of 7.5 IU/spray, dose of 30 units.

`[Cl-].[Cl-].[Mg+2]` [magnesium chloride]: the “analgesia at 2 and 3 hours after dosing” value in assay [1] (15% in water, single nasal administration) was “analgesia continuing”. The “analgesic effect compared to nasal saline treated rats” value in assay [1] (15% in water, single nasal administration, 1 hour) is reported as “strong analgesic effect”.
For `CC(O)C(=O)[O-].CC(O)C(=O)[O-].[Mg+2]` (centres unmarked) [magnesium lactate], in assay [1] (setting [4]), the analgesic effect result was “mild analgesic effect”; the “withdrawal latencies at the 2 and 3 hour time points” value is “still substantially elevated”. The “rise in withdrawal response latency” value in assay [1] (1% in water, single nasal administration, 48 μL) is recorded as “approximately 1.5 s”.
`CC[C@H](C)[C@@H]1NC(=O)[C@H](Cc2ccc(O)cc2)NC(=O)[C@@H](N)CSSC[C@@H](C(=O)N2CCC[C@H]2C(=O)N[C@@H](CC(C)C)C(=O)NCC(N)=O)NC(=O)[C@H](CC(N)=O)NC(=O)[C@H](CCC(N)=O)NC1=O` [oxytocin, Cys-Tyr-Ile-Gln-Asn-Cys-Pro-Leu-Gly]: the withdrawal latency result in assay [1] (1 μg nasally applied) is listed as “no increase”. The “analgesic effect (elevation in latency to withdrawal)” value in assay [1] (1, 4 or 8 μg in aqueous solution, single nasal administration) was “clear dose-dependent analgesic effect”. Besides, the “latency to withdrawal in response to noxious cheek heating” value in assay [1] (4 and 8 μg nasally applied) is recorded as “robust increase in latency to withdrawal”. In addition, the headache pain result in assay [2] (setting [5]) is “gone”. Further, the “neck and shoulder pain” value in assay [2] (setting [5]) was “remained”; in assay [2] (additional 8-10 sprays, or a total of 60-75 IU), “receded and ceased”. In assay [3] (higher 2 doses, 385 or 768 micrograms in 48 microliters), the “effect on mechanical allodynia resulting from inflammation” value is reported as “statistically significant partial reversal of the mechanical allodynia”. In addition, the “effect on pain thresholds (force withdrawal threshold, inflamed forepaw)” value in assay [3] (lowest dose, 193 micrograms in 48 microliters) is reported as “ineffective”.
Regarding magnesium citrate, the “analgesic effect (elevation in latency to withdrawal)” value in assay [1] (3, 6, 10 or 12% in water, single nasal administration) is “clear dose-dependent analgesic effect”.
